PubChem BioAssay AID1963967 (Molecular Pharmacology Branch, DTP, NCI, 2024)

System: 855422-203-R-J1-PDC spheroids with HUVEC/MSC, viability
Experiment: Anticancer human tumor 855422-203-R-J1-PDC patient-derived bladder carcinoma cell line growth inhibition [PI3K]
Details: for viability, T/C: stronger effect = lower value; active means viability on the fitted dose curve at most 10% of control; inactive means the rest
Outline: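 Three cell types, namely tumor cells, endothelial cells and mesenchymal stem cells, formed each spheroid. Combinations with four PI3K inhibitors were screened at clinically achievable concentrations decreasing by half-log, and spheroid viability was recorded.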

[1] = curve of first compound, second compound 0.0316 µM
[2] = curve of first compound, second compound 0.1 µM
[3] = curve of first compound, second compound 0.316 µM
[4] = curve of first compound, second compound 1 µM
[5] = curve of first compound, second compound 3.16 µM
[6] = curve of first compound, second compound 10 µM
[7] = second compound 0.0316 µM, first compound 0.0316 µM
[8] = second compound 0.0316 µM, first compound 0.1 µM
[9] = second compound 0.0316 µM, first compound 0.316 µM
[10] = second compound 0.0316 µM, first compound 1 µM
[11] = second compound 0.0316 µM, first compound 3.16 µM
[12] = second compound 0.0316 µM, first compound 10 µM
[13] = second compound 0.1 µM, first compound 0.0316 µM
[14] = second compound 0.1 µM, first compound 0.1 µM
[15] = second compound 0.1 µM, first compound 0.316 µM
[16] = second compound 0.1 µM, first compound 1 µM
[17] = second compound 0.1 µM, first compound 3.16 µM
[18] = second compound 0.1 µM, first compound 10 µM
[19] = second compound 0.316 µM, first compound 0.0316 µM
[20] = second compound 0.316 µM, first compound 0.1 µM
[21] = second compound 0.316 µM, first compound 0.316 µM
[22] = second compound 0.316 µM, first compound 1 µM
[23] = second compound 0.316 µM, first compound 3.16 µM
[24] = second compound 0.316 µM, first compound 10 µM
[25] = second compound 1 µM, first compound 0.0316 µM
[26] = second compound 1 µM, first compound 0.1 µM
[27] = second compound 1 µM, first compound 0.316 µM
[28] = second compound 1 µM, first compound 1 µM
[29] = second compound 1 µM, first compound 3.16 µM
[30] = second compound 1 µM, first compound 10 µM
[31] = second compound 3.16 µM, first compound 0.0316 µM
[32] = second compound 3.16 µM, first compound 0.1 µM
[33] = second compound 3.16 µM, first compound 0.316 µM
[34] = second compound 3.16 µM, first compound 1 µM
[35] = second compound 3.16 µM, first compound 3.16 µM
[36] = second compound 3.16 µM, first compound 10 µM
[37] = second compound 10 µM, first compound 0.0316 µM
[38] = second compound 10 µM, first compound 0.1 µM
[39] = second compound 10 µM, first compound 0.316 µM
[40] = second compound 10 µM, first compound 1 µM
[41] = second compound 10 µM, first compound 3.16 µM
[42] = second compound 10 µM, first compound 10 µM
[43] = curve of first compound, second compound 0.00316 µM
[44] = curve of first compound, second compound 0.01 µM
[45] = second compound 0.00316 µM, first compound 0.0316 µM
[46] = second compound 0.00316 µM, first compound 0.1 µM
[47] = second compound 0.01 µM, first compound 0.0316 µM
[48] = second compound 0.01 µM, first compound 0.1 µM
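Further: agents incubated with spheroids for one week before read-out.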
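Wherever viability, T/C is given: 100% = DMSO vehicle-treated control wells.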

CC1(C)CCC(Nc2ncc(C(F)(F)F)c(-c3c[nH]c4c(P(C)(C)=O)c(C#N)ccc34)n2)CN1 (stereo not given) + Cc1nc(NC(=O)N2CCCC2C(N)=O)sc1-c1ccnc(C(C)(C)C(F)(F)F)c1
< 31.6 nM: IC50 [1] | IC50 [2] | IC50 [3] | IC50 [4] | IC50 [5] | IC50 [6]
inactive: viability, T/C [7] 27% | viability, T/C [8] 25.1% | viability, T/C [9] 25.5% | viability, T/C [10] 29.4% | viability, T/C [11] 26.9% | viability, T/C [12] 7.04% | viability, T/C [13] 26% | viability, T/C [14] 23.9% | viability, T/C [15] 25% | viability, T/C [16] 26.7% | viability, T/C [17] 28% | viability, T/C [18] 7.41% | viability, T/C [19] 22.5% | viability, T/C [20] 23% | viability, T/C [21] 25% | viability, T/C [22] 22% | viability, T/C [23] 18.5% | viability, T/C [24] 5.22% | viability, T/C [25] 20.2% | viability, T/C [26] 20.2% | viability, T/C [27] 18.7% | viability, T/C [28] 19.6% | viability, T/C [29] 17.5% | viability, T/C [31] 16.3% | viability, T/C [32] 15.4% | viability, T/C [33] 13.3% | viability, T/C [34] 12.9% | viability, T/C [37] 11.8% | viability, T/C [38] 10.2%
active: viability, T/C [30] 2.99% | viability, T/C [35] 10.8% | viability, T/C [36] 0.7% | viability, T/C [39] 8.26% | viability, T/C [40] 8.63% | viability, T/C [41] 6.11% | viability, T/C [42] 0.26%

CC(Nc1ncnc2nc[nH]c12)c1cc2cccc(Cl)c2c(=O)n1-c1ccccc1 (stereo not given)
> 10000 nM: IC50 (compound alone, run of 05/09/2023)
inactive: viability, T/C (compound 0.0316 µM) 107% [middle of 8 runs] | viability, T/C (compound 0.1 µM) 108% [middle of 8 runs] | viability, T/C (compound 0.316 µM) 115% [middle of 8 runs] | viability, T/C (compound 1 µM) 107% [middle of 8 runs] | viability, T/C (compound 3.16 µM) 98.8% [middle of 8 runs] | viability, T/C (compound 10 µM) 86.2% [middle of 8 runs]

CC(C)n1nc(-c2ccc3oc(N)nc3c2)c2c(N)ncnc21 + CC(Nc1ccc2c(c1)OCCn1cc(N3C(=O)OCC3C(F)F)nc1-2)C(N)=O
inactive: viability, T/C (second compound 0.00316 µM, first compound 0.000316 µM) 113% | viability, T/C (second compound 0.00316 µM, first compound 0.001 µM) 90.1% | viability, T/C (second compound 0.00316 µM, first compound 0.00316 µM) 108% | viability, T/C (second compound 0.00316 µM, first compound 0.01 µM) 92.3% | viability, T/C [45] 74.2% | viability, T/C [46] 18.3% | viability, T/C (second compound 0.01 µM, first compound 0.000316 µM) 87.7% | viability, T/C (second compound 0.01 µM, first compound 0.001 µM) 92.9% | viability, T/C (second compound 0.01 µM, first compound 0.00316 µM) 98.7% | viability, T/C (second compound 0.01 µM, first compound 0.01 µM) 81.4% | viability, T/C [47] 63.1% | viability, T/C [48] 19% | viability, T/C (second compound 0.0316 µM, first compound 0.000316 µM) 91% | viability, T/C (second compound 0.0316 µM, first compound 0.001 µM) 84.4% | viability, T/C (second compound 0.0316 µM, first compound 0.00316 µM) 82% | viability, T/C (second compound 0.0316 µM, first compound 0.01 µM) 72% | viability, T/C [7] 59.6% | viability, T/C [8] 14.4% | viability, T/C (second compound 0.1 µM, first compound 0.000316 µM) 71.8% | viability, T/C (second compound 0.1 µM, first compound 0.001 µM) 72.7% | viability, T/C (second compound 0.1 µM, first compound 0.00316 µM) 78.7% | viability, T/C (second compound 0.1 µM, first compound 0.01 µM) 69.9% | viability, T/C [13] 46.6% | viability, T/C [14] 11.4% | viability, T/C (second compound 0.316 µM, first compound 0.000316 µM) 59.3% | viability, T/C (second compound 0.316 µM, first compound 0.001 µM) 55.9% | viability, T/C (second compound 0.316 µM, first compound 0.00316 µM) 58.7% | viability, T/C (second compound 0.316 µM, first compound 0.01 µM) 43.3% | viability, T/C [19] 32.7% | viability, T/C (second compound 1 µM, first compound 0.000316 µM) 39.8% | viability, T/C (second compound 1 µM, first compound 0.001 µM) 38.4% | viability, T/C (second compound 1 µM, first compound 0.00316 µM) 36% | viability, T/C (second compound 1 µM, first compound 0.01 µM) 34% | viability, T/C [25] 24.1%
active: viability, T/C [20] 7.57% | viability, T/C [26] 6.71%
43.9 nM: IC50 [44]
6.08 nM: IC50 [3]
26.8 nM: IC50 [2]
38 nM: IC50 [1]
51.8 nM: IC50 [43]
< 0.316 nM: IC50 [4]

CC(Cn1ccc(-c2ccc(C#N)c(Cl)c2)n1)NC(=O)c1cc(C(C)O)[nH]n1 (stereo not given) + Cc1nc(NC(=O)N2CCCC2C(N)=O)sc1-c1ccnc(C(C)(C)C(F)(F)F)c1
inactive: viability, T/C [7] 110% | viability, T/C [8] 87.1% | viability, T/C [9] 114% | viability, T/C [10] 102% | viability, T/C [11] 102% | viability, T/C [12] 87.5% | viability, T/C [13] 104% | viability, T/C [14] 94.6% | viability, T/C [15] 105% | viability, T/C [16] 91.6% | viability, T/C [17] 98.5% | viability, T/C [18] 89.2% | viability, T/C [19] 91.2% | viability, T/C [20] 88.2% | viability, T/C [21] 94.4% | viability, T/C [22] 89.6% | viability, T/C [23] 98.1% | viability, T/C [24] 86.7% | viability, T/C [25] 71.7% | viability, T/C [26] 76.7% | viability, T/C [27] 73.9% | viability, T/C [28] 77.8% | viability, T/C [29] 81.3% | viability, T/C [30] 62.3% | viability, T/C [31] 44.9% | viability, T/C [32] 45% | viability, T/C [33] 48.5% | viability, T/C [34] 46.5% | viability, T/C [35] 49.9% | viability, T/C [36] 37% | viability, T/C [37] 24.4% | viability, T/C [38] 22.5% | viability, T/C [39] 22% | viability, T/C [40] 26.9% | viability, T/C [41] 28% | viability, T/C [42] 17.4%
> 10000 nM: IC50 [1] | IC50 [2] | IC50 [3] | IC50 [4]
< 31.6 nM: IC50 [5] | IC50 [6]

C#Cc1c(F)ccc2cc(O)cc(-c3ncc4c(N5CC6CCC(C5)N6)nc(OCC56CCCN5CC(F)C6)nc4c3F)c12 (stereo not given) + CC(Nc1ccc2c(c1)OCCn1cc(N3C(=O)OCC3C(F)F)nc1-2)C(N)=O
3610 nM: IC50 [3]
< 31.6 nM: IC50 [4]
inactive: viability, T/C [45] 94.4% | viability, T/C [46] 85.1% | viability, T/C (second compound 0.00316 µM, first compound 0.316 µM) 109% | viability, T/C (second compound 0.00316 µM, first compound 1 µM) 89.2% | viability, T/C (second compound 0.00316 µM, first compound 3.16 µM) 107% | viability, T/C (second compound 0.00316 µM, first compound 10 µM) 110% | viability, T/C [47] 106% | viability, T/C [48] 93% | viability, T/C (second compound 0.01 µM, first compound 0.316 µM) 96.6% | viability, T/C (second compound 0.01 µM, first compound 1 µM) 98.2% | viability, T/C (second compound 0.01 µM, first compound 3.16 µM) 110% | viability, T/C (second compound 0.01 µM, first compound 10 µM) 116% | viability, T/C [7] 82.4% | viability, T/C [8] 87.8% | viability, T/C [9] 89.9% | viability, T/C [10] 92.4% | viability, T/C [11] 105% | viability, T/C [12] 92.9% | viability, T/C [13] 71.7% | viability, T/C [14] 69.8% | viability, T/C [15] 58.7% | viability, T/C [16] 82.8% | viability, T/C [17] 77.8% | viability, T/C [18] 73.6% | viability, T/C [19] 55.5% | viability, T/C [20] 55.3% | viability, T/C [21] 44.7% | viability, T/C [22] 54.6% | viability, T/C [23] 53.9% | viability, T/C [24] 29.1% | viability, T/C [25] 38.7% | viability, T/C [26] 31.5% | viability, T/C [27] 35.1% | viability, T/C [28] 32.8% | viability, T/C [29] 29.4% | viability, T/C [30] 17.6%
> 10000 nM: IC50 [43] | IC50 [44] | IC50 [1] | IC50 [2]
